US9896441B2 (Lycera Corporation, priority 2014, dated 2018)

Experiments:
Gal4-RORγ-LBD = target: T1, Gal4-RORγ-LBD (Homo sapiens, UniProt P51449); assay: Gal4-RORγ Luciferase Reporter Assay in HEK-293T Cells; type: cell-based; conditions: HEK-293 cells; for Gal4-RORγ Assay Max Response: maximum response
T1 construct: expressed in transfected cells
T1 sequence (P51449 269-508 limits assumed): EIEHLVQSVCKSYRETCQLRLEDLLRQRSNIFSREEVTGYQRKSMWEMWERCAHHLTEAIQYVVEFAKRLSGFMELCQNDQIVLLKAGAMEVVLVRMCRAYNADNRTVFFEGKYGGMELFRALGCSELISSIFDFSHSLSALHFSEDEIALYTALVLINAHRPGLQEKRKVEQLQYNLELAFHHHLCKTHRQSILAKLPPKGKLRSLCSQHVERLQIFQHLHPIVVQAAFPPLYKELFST
How it was run: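 HEK-293 cells were co-transfected with Gal4-RORγ-LBD and a Gal4-luciferase reporter, then exposed overnight at 37 °C to compounds with […] ursolic acid present (0.2% DMSO). Luminescence was read with One-Glo after 10 min at RT, untreated signal was set as 100, and Max Response was taken as the upper plateau of a 4-parameter logistic fit.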

RORγ-LBD = target: T2, RORγ-LBD (Homo sapiens, UniProt P51449); assay: RORγ-Ligand Binding Domain (LBD) TR-FRET Assay; type: biochemical; conditions: for TR-FRET Assay Max Response: maximum response;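 on TR-FRET Assay Max Response: 665/615 nm signal ratio set to 100 without ursolic acid or test compound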
T2 construct: made in house; host or cells: SF9 cells (baculovirus); used as diluted lysate
T2 sequence (P51449 269-508 limits assumed): T1 sequence (P51449 269-508 limits assumed)
How it was run: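 SF9 lysate containing His-RORγ-LBD, ~3 nM final; coactivator peptide biotin-SRC1 LXXLL, 200 nM final; ursolic acid 2 μM final; DMSO 1% final; Tris pH 7.0 buffer with KCl, EDTA, DTT, BSA. TR-FRET format.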

[1] = luciferase reporter, with ursolic acid
[2] = luciferase reporter, in presence of ursolic acid

Compound	EC50 (Gal4-RORγ-LBD; [1]) [µM]	EC50 (RORγ-LBD; RORγ-LBD TR-FRET) [µM]	EC50 (Gal4-RORγ-LBD; [2]) [µM]	Gal4-RORγ Assay Max Response (Gal4-RORγ-LBD; [2])	EC50 (RORγ-LBD; RORγ-LBD TR-FRET assay) [µM]	TR-FRET Assay Max Response (RORγ-LBD; RORγ-LBD TR-FRET assay)	other results
CCOc1nn(CC)cc1S(=O)(=O)N1C[C@H](CCC(=O)OC)Oc2ccc(/C=C/c3c(Cl)cccc3C(F)F)cc21 [Example 89EI, methyl (S,E)-3-(6-(2-chloro-6-(difluoromethyl)styryl)-4-((3-ethoxy-1-ethyl-1H-pyrazol-4-yl)sulfonyl)-3,4-dihydro-2H-benzo[b][1,4]oxazin-2-yl)propanoate]	< 0.5	< 0.5	–	–	–	–	–
CCOc1nn(CC)cc1S(=O)(=O)N1C[C@H](CCC(=O)O)Oc2ccc(/C=C/c3c(F)cccc3C(F)(F)F)cc21 [Example 88, (S,E)-3-(4-((3-Ethoxy-1-ethyl-1H-pyrazol-4-yl)sulfonyl)-6-(2-fluoro-6-(trifluoromethyl)styryl)-3,4-dihydro-2H-benzo[b][1,4]oxazin-2-yl)propanoic acid]	0.5 to 5	< 0.5	–	–	–	–	–
O=C(O)CC[C@H]1CN(S(=O)(=O)c2cccc(C(F)(F)F)c2)c2cc(CCc3c(F)cccc3Cl)ccc2O1	–	–	–	–	–	–	EC50 (Gal4-RORγ-LBD; ursolic acid present, luciferase readout): 0.5 to 5 µM; EC50 (RORγ-LBD; with 2 μM ursolic acid (RORγ antagonist), highest test concentration 10 μM): < 0.5 µM
COc1cc(S(=O)(=O)N2C[C@H](CC(C)(C)C(=O)O)Cc3ccc(/C=C/c4c(F)cccc4Cl)cc32)ccc1F [Example 154A]	–	–	< 0.5	* (a value in the range of 30 to 90)	< 0.5	** (a value in the range of greater than 90 to 150)	–
COc1cc(S(=O)(=O)N2C[C@H](CCNC(=O)C(=O)O)Oc3ccc(/C=C(\C)c4c(F)cccc4Cl)cc32)ccc1F [Example 116K, (S,E)-2-((2-(6-(2-(2-chloro-6-fluorophenyl)prop-1-en-1-yl)-4-((4-fluoro-3-methoxyphenyl)sulfonyl)-3,4-dihydro-2H-benzo[b][1,4]-oxazin-2-yl)ethyl)amino)-2-oxoacetic acid]	–	–	0.5 to 5	** (a value in the range of greater than 90 to 150)	< 0.5	*** (a value in the range of greater than 150 to 200)	–
COC(=O)CC[C@H]1CN(S(=O)(=O)c2ccc(F)c(OC(F)F)c2)c2cc(/C=C(\C)c3c(F)cccc3Cl)ccc2O1 [Example 86AT, (S,E)-methyl 3-(6-(2-(2-chloro-6-fluorophenyl)prop-1-en-1-yl)-4-((3-(difluoromethoxy)-4-fluorophenyl)sulfonyl)-3,4-dihydro-2H-benzo[b][1,4]oxazin-2-yl)propanoate]	< 0.5	< 0.5	–	–	–	–	–
COc1cc(S(=O)(=O)N2C[C@H](CNC(=O)c3cccc(C(=O)O)c3)Oc3ccc(/C=C(\C)c4c(F)cccc4Cl)cc32)ccc1F [Example 135A, (S,E)-3-(((6-(2-(2-chloro-6-fluorophenyl)prop-1-en-1-yl)-4-((4-fluoro-3-methoxyphenyl)sulfonyl)-3,4-dihydro-2H-benzo[b][1,4]oxazin-2-yl)methyl)carbamoyl)benzoic acid]	–	–	0.5 to 5	* (a value in the range of 30 to 90)	< 0.5	*** (a value in the range of greater than 150 to 200)	–
COC(=O)CC[C@H]1CN(S(=O)(=O)c2c(OC)nn3c2CCCC3)c2cc(/C=C(\C)c3c(F)cccc3Cl)ccc2O1 [Example 86L, (S,E)-methyl 3-(6-(2-(2-chloro-6-fluorophenyl)prop-1-en-1-yl)-4-((2-methoxy-4,5,6,7-tetrahydropyrazolo[1,5-a]pyridin-3-yl)-sulfonyl)-3,4-dihydro-2H-benzo[b][1,4]oxazin-2-yl)-propanoate]	< 0.5	< 0.5	–	–	–	–	–
O=C(O)CC[C@H]1CN(S(=O)(=O)c2cc(C(F)(F)F)cnc2OCCO)c2cc(C=C3CCC(F)(F)CC3)ccc2O1 [Example 95M, (S)-3-(6-((4,4-difluorocyclohexylidene)methyl)-4-((2-(2-hydroxyethoxy)-5-(trifluoromethyl)pyridin-3-yl)sulfonyl)-3,4-dihydro-2H-benzo[b][1,4]oxazin-2-yl)propanoic acid]	0.5 to 5	< 0.5	–	–	–	–	–
